Data published in patent US20150344444A1, “BET-PROTEIN-INHIBITING DIHYDROXYQUINOXALINONES” (BAYER PHARMA AKTIENGESELLSCHAFT, priority 2012, published 2015).

Legend:
[1] = target: T1, BRD4 Bromo Domain 2 [BRD4(2)] (Homo sapiens, UniProt O60885); experiment: BRD4(2)/acetylated peptide H4 binding assay (TR-FRET); details: inhibition of interaction between His6-tagged BRD4(2) (amino acids 357-445) and acetylated histone H4 peptide
T1 construct: N-terminally His6-tagged BRD4(2) (amino acids 357-445); made in house; host or cells: E. coli
Text: Protein-Protein Interaction Assay: BRD4/Acetylated Peptide H4 Binding Assay
2. Assay Description for BRD4 Bromo Domain 2 [BRD4(2)]
To assess the BRD4(2) binding strength of the substances described in this application, the ability thereof to inhibit the interaction between BRD4(2) and acetylated histone H4 in a dose-dependent manner was quantified.
For this purpose, a time-resolved fluorescence resonance energy transfer (TR-FRET) assay was used, which measures the binding between N-terminally His6-tagged BRD4(2) (amino acids 357-445) and a synthetic acetylated histone H4 (Ac-H4) peptide with sequence SGRGK(Ac)GGK(Ac)GLGK(Ac)GGAK(Ac)RHRKVLRDNGSGSK-biotin. The recombinant BRD4(2) protein produced in house according to Filippakopoulos et al., Cell, 2012, 149:214-231 was expressed in E. coli and purified by means of (Ni-NTA) affinity and (Sephadex G-75) size exclusion chromatography. The Ac-H4 peptide can be purchased, for example, from Biosyntan (Berlin, Germany).
In the assay, typically 11 different concentrations of each substance (0.1 nM, 0.33 nM, 1.1 nM, 3.8 nM, 13 nM, 44 nM, 0.15 μM, 0.51 μM, 1.7 μM, 5.9 μM and 20 μM) were analysed as duplicates on the same microtitre plate. For this purpose, 100-fold concentrated solutions in DMSO were prepared by serial dilutions (1:3.4) of a 2 mM stock solution into a clear, 384-well microtitre plate (Greiner Bio-One, Frickenhausen, Germany). From this, 50 nl were transferred into a black test plate (Greiner Bio-One, Frickenhausen, Germany). The test was started by the addition of 2 μl of a 2.5-fold concentrated BRD4(2) solution (final concentration typically 100 nM in the 5 μl of reaction volume) in aqueous assay buffer [50 mM HEPES pH 7.5, 50 mM sodium chloride (NaCl); 50 mM potassium fluoride (KF); 0.25 mM CHAPS and 0.05% serum albumin (BSA)] to the substances in the test plate. This was followed by a 10-minute incubation step at 22° C. for the pre-equilibration of putative complexes between BRD4(2) and the substances.
The mixture was then incubated in the dark at 22° C. for one hour and then at 4° C. for at least 3 hours and for no longer than overnight. The formation of BRD4(2)/Ac-H4 complexes was determined by the measurement of the resonance energy transfer from the streptavidin-Eu chelate to the anti-6His-XL665 antibody present in the reaction. For this purpose, the fluorescence emission was measured at 620 nm and 665 nm after excitation at 330-350 nm in a TR-FRET measuring instrument, for example a Rubystar or Pherastar (both from BMG Lab Technologies, Offenburg, Germany) or a Viewlux (Perkin-Elmer). The ratio of the emissions at 665 nm and at 622 nm was taken as an indicator of the amount of BRD4(2)/Ac-H4 complexes formed.
The data (ratios) obtained were normalized, with 0% inhibition corresponding to the mean from the measurements for a set of controls (typically 32 data points) in which all the reagents were present. In these, in place of test substances, 50 nl of DMSO (100%) were used Inhibition of 100% corresponded to the mean from the measurements for a set of controls (typically 32 data points) in which all the reagents except BRD4(2) were present. The IC50 was determined by regression analysis based on a 4-parameter equation (minimum, maximum, IC50, Hill; Y=max+(min−max)/(1+(X/IC50)Hill)).

B16F10 cells = experiment: B16F10 cell proliferation assay (alamarBlue); type: cell-based; details: B16-F10; inhibition of cell proliferation, 96 hours, mouse melanoma cell line
Procedure, shortened: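 Mouse B16F10 melanoma cells (300-500/well, DMEM, 10% FCS) treated with compound at 1E-5 to 1E-8 M for 96 h at 37° C. alamarBlue fluorescence (ex 530/em 590 nm) before and after treatment; the difference compared to buffer-treated cells gives IC50 for proliferation inhibition.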

Row | SMILES | IC50 [1] [nM] | IC50 (B16F10 cells) [nM]
1 | COc1ccc(CN2c3cc(Nc4ccc(S(=O)(=O)N5CCOCC5)cc4)ccc3N(C)C(=O)[C@H]2C)cc1 [Example 42, (3R)-4-(4-methoxybenzyl)-1,3-dimethyl-6-{[4-(morpholin-4-ylsulphonyl)phenyl]amino}-3,4-dihydroquinoxalin-2(1H)-one] | 68 | 79
2 | COc1ccc(CN2c3cc(Nc4ccc(S(=O)(=O)N5CCN(C)CC5)cc4)ccc3N(C)C(=O)[C@H]2C)cc1 [Example 43, (3R)-4-(4-methoxybenzyl)-1,3-dimethyl-6-({4-[(4-methylpiperazin-1-yl)sulphonyl]phenyl}amino)-3,4-dihydroquinoxalin-2(1H)-one] | 54 | 212
3 | COc1ccc(CN2c3cc(Nc4ccc(S(=O)(=O)N5CCN(C(C)C)CC5)cc4)ccc3N(C)C(=O)[C@H]2C)cc1 [Example 44, (3R)-4-(4-methoxybenzyl)-1,3-dimethyl-6-[(4-{[4-(propan-2-yl)piperazin-1-yl]sulphonyl}phenyl)amino]-3,4-dihydroquinoxalin-2(1H)-one] | 73 | 460
4 | C[C@@H]1C(=O)N(C)c2ccc(Nc3ccc(S(=O)(=O)N(C)C)cc3)cc2N1C1CCCCCC1 [Example 45, 4-{[(3R)-4-cycloheptyl-1,3-dimethyl-2-oxo-1,2,3,4-tetrahydroquinoxalin-6-yl]amino}-N,N-dimethylbenzenesulphonamide] | 83 | 1570
5 | C[C@@H]1C(=O)N(C)c2ccc(Nc3ccc(S(=O)(=O)N(C)C)cc3)cc2N1C1CCOCC1 [Example 46, 4-{[(3R)-1,3-dimethyl-2-oxo-4-(tetrahydro-2H-pyran-4-yl)-1,2,3,4-tetrahydroquinoxalin-6-yl]amino}-N,N-dimethylbenzenesulphonamide] | 148 | 600
6 | C[C@@H]1C(=O)N(C)c2ccc(Nc3ccc(S(=O)(=O)N4CCOCC4)cc3)cc2N1C1CCOCC1 [Example 47, (3R)-1,3-dimethyl-6-{[4-(morpholin-4-ylsulphonyl)phenyl]amino}-4-(tetrahydro-2H-pyran-4-yl)-3,4-dihydroquinoxalin-2(1H)-one] | 134 | 423
7 | C[C@@H]1C(=O)N(C)c2ccc(Nc3ccc(S(=O)(=O)N4CCN(C)CC4)cc3)cc2N1C1CCOCC1 [Example 48, (3R)-1,3-dimethyl-6-({4-[(4-methylpiperazin-1-yl)sulphonyl]phenyl}amino)-4-(tetrahydro-2H-pyran-4-yl)-3,4-dihydroquinoxalin-2(1H)-one] | 112 | 1450
